Consider five molecules from PMC8715118, “Assessing potentiation of the (α4)3(β2)2 nicotinic acetylcholine receptor by the allosteric agonist CMPI” (The Journal of Biological Chemistry, 2021).

What all share (assay type): cell-based
The target of test [1] is T1, (α4)3(β2)2 nAChR (Homo sapiens, UniProt P17787+P43681).
T1 construct: expressed in transfected cells; host or cells: Xenopus laevis oocytes injected with cRNA, 8:1 α4:β2
Nature of the test: Mechanistic (Monod-Wyman-Changeux two-state model) analysis of current responses, WT (α4)3(β2)2 nAChR. Conditions: for peak PA: calculated with Equation 2; for Kd / c, ratio of equilibrium dissociation constants active/resting receptor: WT. From the text: To gain mechanistic insight into receptor activation in the presence of CMPI, we analyzed the currents in the framework of a cyclic two-state (resting and active) allosteric activation model ([31], [32], [33]). In this model, channel opening is mediated by stabilization of the active state by an agonist that, by definition, has higher affinity to the active than resting state.
We commenced by converting the raw amplitudes of current responses to units of probability of being in the active state (PA units).
Further analysis of electrophysiological data was conducted in the framework of the two-state concerted transition model, adapted from the MWC cyclic model originally used to describe enzyme function ([31], [32], [33]). The raw peak amplitudes of current responses were converted to units of probability of being in the active state (PA).
The numbers of α4:β2 and α4:α4 binding sites (Nα4:β2 and Nα4:α4) were constrained to 2 and 1, respectively.
The concentration-response curve for TC-2559 was fitted to the following equation:(3) PA=1/1+L[1+[TC-2559]/KR,TC-2559,α4:β2/1+[TC-2559]/(KR,TC-2559,α4:β2cTC-2559,α4:β2)]^Nα4:β2
The concentration-response data were analyzed using Equation 3, with the value of L modified to reflect receptor activation by TC-2559, and the affinity and efficacy terms in the equation reflecting the values for CMPI. The number of binding sites for CMPI in Equation 3 was constrained to 1.
Curve fitting was done using Origin 2020 (OriginLab Corp). The results are reported as best-fit parameter ±SD of the fit. All data are included in the analysis.

The target of another test is T2, (α4K64T)3(β2)2 nAChR (Homo sapiens, UniProt P17787+P43681, K90T).
T2 construct: expressed in transfected cells; host or cells: Xenopus laevis oocytes injected with cRNA, 8:1 α4:β2
As to the kind of experiment: Two-electrode voltage-clamp, oocytes expressing (α4K64T)3(β2)2 nAChR. On the procedure: (§1) Oocytes-positive female Xenopus laevis were purchased from NASCO, and all procedures were performed according to an animal use protocol approved by the Institutional Animals Care and Use Committee of The University of Texas Health Science Center at Tyler. Ovarian lobules were surgically harvested, treated with collagenase type 2, and Stage V and VI oocytes were visually selected and maintained at 18 °C in modified ND96-gentamicin buffer (96 mM NaCl, 2 mM KCl, 1.8 mM CaCl2, 1 mM MgCl2, 5 mM Hepes, and 50 μg/ml gentamicin, pH 7.6).
(§2) pSP64 Poly(A) plasmids with cDNA encoding for human α4 or β2 nAChR subunit were used to prepare cRNA transcripts suitable for oocyte expression. The plasmids were linearized with AseI (hα4) and PvuII (hβ2), then cRNA transcripts were prepared in vitro using mMESSAGE mMACHINE high yield-capped RNA transcription kits (Ambion, Thermo Fisher Scientific), purified on NucAway Spin column (Invitrogen, Thermo Fisher Scientific), and stored at −80 °C until used. Point mutations within the plasmid encoding the α4 nAChR subunit were introduced using QuikChange II Site-Directed Mutagenesis Kit (Agilent Technologies), as described previously ([28]). To generate amino acid substitutions (K64T, E66I, H116V, H116L, and H116A), two custom-designed complementary oligos containing the desired mutation were used (Integrated DNA Technologies). The forward primers were as the following with the codon for mutated amino acids are underlined and nucleotide(s) changes are bolded and italicized:
(§3) The oocytes were injected with 10 to 50 ng of a cRNA mix containing α4 (WT or mutant) and β2 RNAs at ratios of 8:1(α4:β) or 1:8 (α4:β2) to bias expression toward (α4)3(β2)2 or (α4)2(β2)3 nAChRs, respectively. The injection of oocytes with RNAs mixture containing four folds or higher α4 RNA than β2 RNA have been established to express receptor population that is made up of three α4 and two β2 subunits ([9], [12], [28], [43], [44], [45]).
(§4) 24 to 72 h after cRNA injection, Xenopus oocytes were placed in a custom-made recording chamber that is connected to an eight-channel automated perfusion system (Warner Instruments) and perfused with recording buffer (100 mM NaCl, 2 mM KCl, 1 mM CaCl2, 0.8 mM MgCl2, 1 mM EGTA, and 10 mM Hepes, pH 7.5). Unless otherwise specified in figure legends, each recording run included several drug applications (10 s of an agonist with or without CMPI or NS9283) separated by 3 to 4 min buffer wash intervals. Between recording runs, the oocytes were washed with recording buffer for at last 5 min. […] The currents were digitized using Digidata 1550A (Axon Instruments, Molecular Devices), and the peak currents were quantified using pCLAMP 10 (Axon Instruments), then normalized and analyzed using Excel 2010 (Microsoft) and SigmaPlot 11.0 (Systat Software). […]

For the next test, the target named is T3, (α4E66I)3(β2)2 nAChR (Homo sapiens, UniProt P17787+P43681, E92I).
T3 construct: expressed in transfected cells; host or cells: Xenopus laevis oocytes injected with cRNA, 8:1 α4:β2
As to the kind of experiment: Two-electrode voltage-clamp, oocytes expressing (α4E66I)3(β2)2 nAChR. On the procedure: as §1, §2, §3, §4

Test [2] addresses T1, (α4)3(β2)2 nAChR. As to the kind of experiment: Two-electrode voltage-clamp whole-cell currents, Xenopus oocytes expressing WT (α4)3(β2)2 nAChR. Conditions: for current response produced by a saturating concentration (100 μM), % of current elicited by 1 mM ACh: 100 μM agonist; for current response at subsaturating concentration, % of the current response to 1 mM ACh: subsaturating (1 μM) agonist. On the procedure:
as §1, §2, §3
(§5) 24 to 72 h after cRNA injection, Xenopus oocytes were placed in a custom-made recording chamber that is connected to an eight-channel automated perfusion system (Warner Instruments) and perfused with recording buffer (100 mM NaCl, 2 mM KCl, 1 mM CaCl2, 0.8 mM MgCl2, 1 mM EGTA, and 10 mM Hepes, pH 7.5). Unless otherwise specified in figure legends, each recording run included several drug applications (10 s of an agonist with or without CMPI or NS9283) separated by 3 to 4 min buffer wash intervals. Between recording runs, the oocytes were washed with recording buffer for at last 5 min. The oocytes were voltage-clamped at −50 mV using Oocyte Clamp OC-725B (Warner Instruments). The currents were digitized using Digidata 1550A (Axon Instruments, Molecular Devices), and the peak currents were quantified using pCLAMP 10 (Axon Instruments), then normalized and analyzed using Excel 2010 (Microsoft) and SigmaPlot 11.0 (Systat Software). For NS9283 and CMPI potentiation of agonist-induced responses, the peak currents were normalized to current elicited by agonist alone applied within the same recording run. For the effect of coapplication of 1 μM NS9283 or CMPI on agonist concentration-response curve, the peak currents were normalized to current elicited by saturating concentration of agonist applied within the same recording run. […] I0 = 100 for NS9283 and CMPI potentiation of agonist-induced responses and I0 = 0 for agonist concentration-response experiments. The best-fit values for Imax and EC50 ± SD are presented.

The target in the next test is T4, (α4H116L)3(β2)2 nAChR (Homo sapiens, UniProt P17787+P43681, H142L).
T4 construct: expressed in transfected cells; host or cells: Xenopus laevis oocytes injected with cRNA, 8:1 α4:β2
As to the kind of experiment: Two-electrode voltage-clamp, oocytes expressing (α4H116L)3(β2)2 nAChR. The procedure:
as §1, §2, §3, §4

In a further test the target is T5, (α4H116V)3(β2)2 nAChR (Homo sapiens, UniProt P17787+P43681, H142V).
T5 construct: expressed in transfected cells; host or cells: Xenopus laevis oocytes injected with cRNA, 8:1 α4:β2
Nature of the test: Two-electrode voltage-clamp, oocytes expressing (α4H116V)3(β2)2 nAChR. The procedure: as §1, §2, §3, §4

The target in a further test is T6, (α4H116A)3(β2)2 nAChR (Homo sapiens, UniProt P17787+P43681, H142A).
T6 construct: expressed in transfected cells; host or cells: Xenopus laevis oocytes injected with cRNA, 8:1 α4:β2
Nature of the test: Two-electrode voltage-clamp, oocytes expressing (α4H116A)3(β2)2 nAChR. The conditions noted are these: 1 μM modulator. The procedure:
as §1, §2, §3, §5

“And” between values parts separate entries of the source, which are not always exact repeats. Equal values may be shown once. Read-outs that look alike come from different tables or passages of the source.

T1 sequence (P43681 27-627): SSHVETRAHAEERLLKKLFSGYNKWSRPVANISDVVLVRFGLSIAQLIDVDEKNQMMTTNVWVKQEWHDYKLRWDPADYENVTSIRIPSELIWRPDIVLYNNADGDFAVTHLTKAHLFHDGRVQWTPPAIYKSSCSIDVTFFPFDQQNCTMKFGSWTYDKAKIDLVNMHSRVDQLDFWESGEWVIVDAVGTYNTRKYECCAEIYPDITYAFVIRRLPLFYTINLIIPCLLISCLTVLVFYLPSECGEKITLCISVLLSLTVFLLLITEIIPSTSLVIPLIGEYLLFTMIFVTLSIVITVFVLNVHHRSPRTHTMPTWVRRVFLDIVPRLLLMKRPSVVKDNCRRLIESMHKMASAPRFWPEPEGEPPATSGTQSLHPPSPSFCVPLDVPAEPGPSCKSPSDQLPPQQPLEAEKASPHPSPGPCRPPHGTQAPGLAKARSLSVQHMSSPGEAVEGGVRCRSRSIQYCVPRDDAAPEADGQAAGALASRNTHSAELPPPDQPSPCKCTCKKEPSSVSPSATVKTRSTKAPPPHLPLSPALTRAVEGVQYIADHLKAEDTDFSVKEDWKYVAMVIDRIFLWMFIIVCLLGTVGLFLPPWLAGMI
T1 sequence (P17787 26-502): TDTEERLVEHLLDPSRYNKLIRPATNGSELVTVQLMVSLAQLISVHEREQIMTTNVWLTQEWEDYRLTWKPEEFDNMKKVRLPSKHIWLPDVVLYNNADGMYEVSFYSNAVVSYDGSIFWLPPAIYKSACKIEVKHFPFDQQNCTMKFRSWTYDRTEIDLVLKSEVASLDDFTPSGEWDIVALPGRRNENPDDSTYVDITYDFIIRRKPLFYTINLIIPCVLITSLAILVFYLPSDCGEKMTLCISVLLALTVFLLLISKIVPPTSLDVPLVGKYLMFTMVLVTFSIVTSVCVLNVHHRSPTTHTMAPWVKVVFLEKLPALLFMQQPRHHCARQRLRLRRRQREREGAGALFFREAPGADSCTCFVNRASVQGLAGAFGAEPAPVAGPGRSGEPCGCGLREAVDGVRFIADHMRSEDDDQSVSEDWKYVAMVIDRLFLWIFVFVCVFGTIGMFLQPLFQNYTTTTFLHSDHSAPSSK
T3 sequence (P43681 27-627 E92I): as the sequence (P43681 27-627) above, with E66I counted along it
T3 sequence (P17787 26-502): as the sequence (P17787 26-502) above
T6 sequence (P43681 27-627 H142A): as the sequence (P43681 27-627) above, with H116A counted along it
T6 sequence (P17787 26-502): as the sequence (P17787 26-502) above
T5 sequence (P43681 27-627 H142V): as the sequence (P43681 27-627) above, with H116V counted along it
T5 sequence (P17787 26-502): as the sequence (P17787 26-502) above
T4 sequence (P43681 27-627 H142L): as the sequence (P43681 27-627) above, with H116L counted along it
T4 sequence (P17787 26-502): as the sequence (P17787 26-502) above
T2 sequence (P43681 27-627 K90T): as the sequence (P43681 27-627) above, with K64T counted along it
T2 sequence (P17787 26-502): as the sequence (P17787 26-502) above

As for `CC(=O)OCC[N+](C)(C)C` [ACh, Acetylcholine chloride], on (α4)3(β2)2 nAChR [1] (1 mM ACh, normalized to 1 mM ACh + 3 μM dFBr), the “PA,1 mM ACh (peak probability of being in the active state)” value is 0.36 ± 0.05 and 0.36. The “free energy change toward stabilization of the active state (ΔGgating)” value on (α4)3(β2)2 nAChR [1] (binding to the single α4:α4 site) is -1.27 kcal/mol. Also, the “free energy change toward stabilization of the active state (ΔGgating,total)” value on (α4)3(β2)2 nAChR [1] (binding to the two α4:β2 sites) is -1.69 kcal/mol. Also, the “peak PA” value at (α4)3(β2)2 nAChR [1] (occupation of the two α4:β2 sites and the single α4:α4 site with ACh) was 0.36; on (α4)3(β2)2 nAChR [1] (occupation of the two α4:β2 sites with ACh), 0.072. Further, at (α4)3(β2)2 nAChR [1] (per α4:β2 site), the ΔGgating per site is -0.84 kcal/mol.

Consider `N#Cc1cccc(-c2nc(-c3cccnc3)no2)c1` [NS9283, 3-[3-(3-pyridinyl)-1,2,4-oxadiazol-5-yl]benzonitrile], for which the “potentiation fold (Ave ± SD), agonist + 1 μM modulator / agonist alone” value at (α4K64T)3(β2)2 nAChR (ACh (1 mM)) was 1.10 ± 0.08; on (α4K64T)3(β2)2 nAChR (TC 2559 (30 μM)) it was 4.72 ± 2.27; at (α4E66I)3(β2)2 nAChR (ACh (1 mM)), 0.95 ± 0.07; at (α4E66I)3(β2)2 nAChR (TC 2559 (30 μM)) it was 2.68 ± 1.08; at (α4)3(β2)2 nAChR [2] (ACh (1 mM), 1 μM modulator), 1.00 ± 0.04; on (α4)3(β2)2 nAChR [2] (TC 2559 (30 μM), 1 μM modulator), 5.05 and 5.05 ± 1.66. Further, the “potentiation fold (Ave ± SD), agonist + 1 μM modulator / agonist alone” value on (α4H116L)3(β2)2 nAChR (ACh (1 mM)) is given as 0.95 ± 0.03; at (α4H116L)3(β2)2 nAChR (TC 2559 (30 μM)), 1.18 ± 0.17; at (α4H116V)3(β2)2 nAChR (ACh (1 mM)), 0.90 ± 0.02; at (α4H116V)3(β2)2 nAChR (TC 2559 (30 μM)), 0.87 ± 0.06; at (α4H116A)3(β2)2 nAChR (ACh (1 mM)), 0.98 ± 0.03; at (α4H116A)3(β2)2 nAChR (TC 2559 (30 μM)) it was 0.93 ± 0.12. In addition, the maximal potentiation at (α4)3(β2)2 nAChR [2] (1 μM TC-2559) was determined as 1800 ± 307%; on (α4)3(β2)2 nAChR [2] (10 μM TC-2559), 1522 ± 41%. In addition, at (α4)3(β2)2 nAChR [2] (1 μM modulator, ACh, nicotine, cytisine, TC-2559, p < 0.001), the “effect on responses to agonists at subsaturating concentrations” value is “potentiated”. For the same molecule, on (α4)3(β2)2 nAChR [2] (1 μM modulator, except for TC-2559), the “effect on responses to saturating concentrations of the tested agonists” value is recorded as “did not potentiate”. Further, the EC50 came out at 1.9 ± 0.2 µM at (α4)3(β2)2 nAChR [2] (responses induced by 1 μM TC-2559, read-out: potentiation EC50) and 1.8 ± 0.12 µM at (α4)3(β2)2 nAChR [2] (responses induced by 10 μM TC-2559, read-out: potentiation EC50).

Consider `O=c1cccc2n1C[C@@H]1CNC[C@H]2C1` [cytisine], for which, on (α4)3(β2)2 nAChR [2], the “current response produced by a saturating concentration (100 μM), % of current elicited by 1 mM ACh” value was 10 ± 1%. Also, at (α4)3(β2)2 nAChR [2] (% of 100 μM cytisine alone), the “I100 μM cytisine + 1 μM CMPI” value worked out at 91 ± 5%. On (α4)3(β2)2 nAChR [2] (% of 100 μM cytisine alone, data not shown), the “I100 μM cytisine + 1 μM NS9283” value stood at 113 ± 9%. For the same molecule, at (α4)3(β2)2 nAChR [2] (agonist alone, read-out: agonist EC50), the EC50 was 11 ± 6 µM. Moreover, the “current response at subsaturating concentration, % of the current response to 1 mM ACh” value on (α4)3(β2)2 nAChR [2] is 2.3 ± 0.4%. Further, the Kd at (α4)3(β2)2 nAChR [1] (KR, equilibrium dissociation constant in the resting receptor, α4:α4 site) was 8.3 ± 0.5 µM; on (α4)3(β2)2 nAChR [1] (read-out: KR, equilibrium dissociation constant in the resting receptor, α4:β2 site), 0.63 ± 1.24 µM. Also, the “c, ratio of equilibrium dissociation constants active/resting receptor” value on (α4)3(β2)2 nAChR [1] (α4:α4 site) came to 0.155 ± 0.104; at (α4)3(β2)2 nAChR [1] (α4:β2 site) it was 0.875 ± 0.029.

As to `C=CC(C)(C)c1[nH]c2cc(Br)ccc2c1CCNC` [dFBr, desformylflustrabromine], the “peak response to 1 mM ACh, % of control” value on (α4)3(β2)2 nAChR [2] (1 mM ACh + 3 μM dFBr) was 278 ± 36%.

Turning to `CN1CCC[C@H]1c1cccnc1` [nicotine], on (α4)3(β2)2 nAChR [2], the “current response produced by a saturating concentration (100 μM), % of current elicited by 1 mM ACh” value was 73 ± 3% and the “current response at subsaturating concentration, % of the current response to 1 mM ACh” value stood at 2.9 ± 0.4%.
